Measured values published in the RepoRT retention time repository (doi:10.1021/pr300673x).

assay: RP, 50 × 2.1 mm, 1.7 µm, 0.5 mL/min, estimated dead time 0.22 min; A: 98% water + 2% acetonitrile + 0.1% formic acid, pH 3; B: 2% water + 98% acetonitrile + 0.1% formic acid, pH 3; gradient (min/%B) 0/0 0.5/0 4/60 8/100 9/100 9.2/0 10/0; settings: stereoisomer not certain

Point of comparison: [NH3+]C(Cc1ccccc1)C(=O)NC(Cc1ccccc1)C(=O)[O-] (stereo not given) [Phe-Phe], LC retention time 2.91 min. Against it:
- CC(CCC(=O)O)C1CCC2C3CC(O)C4CC(O)CCC4(C)C3CCC12C (stereo not given) — 1.6-fold higher, 4.78 min
- CC(=CCCC(C)C1CCC2C3C(O)CC4CC(O)CCC4(C)C3CCC12C)C(=O)O (racemic) — 2.4-fold higher, 6.87 min
- NC(N)=NCCC(=O)O [3-guanidinopropionic acid] — 3.3-fold lower, 0.883 min
- CCCCCCCCCCCCCCCCCC(O)CC(=O)O (stereo not given) [3-hydroxyeicosanoic acid] — 2.5-fold higher, 7.39 min
- C=CC1=C(C)C(=Cc2[nH]c(Cc3[nH]c(C=C4NC(=O)C(C)=C4C=C)c(C)c3CCC(=O)O)c(CCC(=O)O)c2C)NC1=O [4E,15Z-bilirubin IXa] — 2.6-fold higher, 7.62 min
- C=CC1=C(C)C(=O)N=C1C=c1[nH]c(=Cc2[nH]c(CC3NC(=O)C(C=C)=C3C)c(C)c2CCC(=O)O)c(CCC(=O)O)c1C (stereo not given) [15,16-dihydrobiliverdin] — 2.5-fold higher, 7.42 min
- CCCCCCCCCCCCCC=CC(O)C(COP(=O)(O)O)NC(=O)CCCCCCCCCCC (stereo not given) [CerP(d18:1/12:0)] — 2.5-fold higher, 7.37 min
- NC(N)=NCCC[C@H](NCCC(=O)O)C(=O)O [L-N2-(2-carboxyethyl)arginine] — within 1.5-fold, 4.28 min
- CCCCCCCCC=CCCCCCCCCCC(=O)OCC(O)COP(=O)([O-])OCC[N+](C)(C)C (stereo not given) [LysoPC(20:1)] — 2.4-fold higher, 6.88 min
- CCCCCC=CCC=CCC=CCC=CCCCC(=O)OCC(O)COP(=O)([O-])OCC[N+](C)(C)C (stereo not given) [LysoPC(20:4)] — 2.7-fold higher, 7.74 min
- CC(=O)C(CCCCN)NS(=O)(=O)c1ccc(C)cc1 [N-tosyl-L-lysinyl methyl ketone] — 2.5-fold higher, 7.42 min
- CCCCCCCCCC(=O)O[C@H](CC(=O)[O-])C[N+](C)(C)C [O-decanoyl-L-carnitine] — 2-fold higher, 5.71 min
- CCCCCC=CCC=CCCCCCCCC(=O)OC(CC(=O)[O-])C[N+](C)(C)C (stereo not given) [O-linoelaidylcarnitine] — 2.1-fold higher, 5.98 min
- CCCCCCCC(=O)O[C@H](CC(=O)[O-])C[N+](C)(C)C [O-octanoyl-R-carnitine] — 1.8-fold higher, 5.12 min
- CCCCCCCCCCCCCCCCOCC(O)COP(=O)([O-])OCC[N+](C)(C)C (stereo not given) [PC(O-16:0/0:0)] — 2.2-fold higher, 6.42 min
- CC(CCC(=O)NCC(=O)O)C1CCC2C3C(O)CC4CC(O)CCC4(C)C3CCC12C (stereo not given) [glycochenodeoxycholic acid (GCDCA)] — 1.6-fold higher, 4.79 min
- CC(CCC(=O)NCC(=O)O)C1CCC2C3C(O)CC4CC(O)CCC4(C)C3CC(O)C12C (stereo not given) [glycocholic acid (GCA)] — within 1.5-fold, 4.3 min
- CC(CCC(=O)NCC(=O)O)C1CCC2C3CCC4CC(O)CCC4(C)C3CC(O)C12C (stereo not given) [glycodeoxycholic acid (GDCA)] — within 1.5-fold, 4.28 min
- CCCCCC=CCC=CCCCCCCCC(=O)O [octadecadienoic acid] — 2.6-fold higher, 7.44 min
- CCCCCCCCC=CCCCCCCCC(N)=O [oleamide] — 2.5-fold higher, 7.16 min
- CCCCCCCCC=CCCCCCCCC(=O)OC(CC(=O)[O-])C[N+](C)(C)C (stereo not given) [oleoylcarnitine] — 2.1-fold higher, 6.24 min
- CCCCCCCCCCCCCCCC(=O)OC(CC(=O)[O-])C[N+](C)(C)C (stereo not given) [palmitylcarnitine] — 2.1-fold higher, 6.15 min
- CC(=O)Cc1ccccc1 [phenylmethyl methyl ketone] — within 1.5-fold, 3.31 min
- CC(CCC(=O)NCCS(=O)(=O)O)C1CCC2C3C(O)CC4CC(O)CCC4(C)C3CCC12C (stereo not given) [taurochenodeoxycholic acid (TCDCA)] — within 1.5-fold, 3.89 min
